Test results reported in US20260130933A1, “PHARMACEUTICAL COMPOSITION FOR PREVENTION OR TREATMENT OF NEPHROPATHY AND/OR DIABETES MELLITUS, COMPRISING ENAVOGLIFLOZIN” (DAEWOONG PHARMACEUTICAL CO., LTD., priority 2022, published 2026).

Experiment: Example 1: phase 3 trial, enavogliflozin 0.3 mg once a day as monotherapy vs placebo for 24 weeks in patients with type 2 diabetes (HbA1c, FPG, C-peptide, body weight, lipids, blood pressure, HOMA, UACR, UGCR, adiponectin, leptin, safety)
Type: in vivo, human
Conditions: for Adiponectin, Mean (SD) / Adiponectin, Median / HOMA-IR, Mean (SD) / HOMA-IR, Median / HOMA-β, Mean (SD) / HOMA-β, Median / Leptin, Mean (SD) / Leptin, Median / UACR, Mean (SD) / UACR, Median / UGCR, Mean (SD) / UGCR, Median / Change from baseline in HOMA-IR, ANCOVA LS mean (SE) / Change from baseline in HOMA-IR, Mean (SD) / Change from baseline in HOMA-IR, Median / Change from baseline in HOMA-β, ANCOVA LS mean (SE) / Change from baseline in HOMA-β, Mean (SD) / Change from baseline in HOMA-β, Median / Change from baseline in UACR, ANCOVA LS mean (SE) / Change from baseline in UACR, Mean (SD) / Change from baseline in UACR, Median / Change from baseline in UGCR, ANCOVA LS mean (SE) / Change from baseline in UGCR, Mean (SD) / Change from baseline in UGCR, Median / Change from baseline in adiponectin, ANCOVA LS mean (SE) / Change from baseline in adiponectin, Mean (SD) / Change from baseline in adiponectin, Median / Change from baseline in leptin, ANCOVA LS mean (SE) / Change from baseline in leptin, Mean (SD) / Change from baseline in leptin, Median / Change from baseline in HOMA-IR, ANCOVA LS mean difference / Change from baseline in HOMA-β, ANCOVA LS mean difference / Change from baseline in UACR, ANCOVA LS mean difference / Change from baseline in UGCR, ANCOVA LS mean difference / Change from baseline in adiponectin, ANCOVA LS mean difference / Change from baseline in leptin, ANCOVA LS mean difference: LOCF, full analysis set; for Adiponectin, Mean (SD) / Adiponectin, Median / HOMA-IR, Mean (SD) / HOMA-IR, Median / HOMA-β, Mean (SD) / HOMA-β, Median / Leptin, Mean (SD) / Leptin, Median / UACR, Mean (SD) / UACR, Median / UGCR, Mean (SD) / UGCR, Median / Change from baseline in HOMA-IR, ANCOVA LS mean (SE) / Change from baseline in HOMA-IR, Mean (SD) / Change from baseline in HOMA-IR, Median / Change from baseline in HOMA-β, ANCOVA LS mean (SE) / Change from baseline in HOMA-β, Mean (SD) / Change from baseline in HOMA-β, Median / Change from baseline in UACR, ANCOVA LS mean (SE) / Change from baseline in UACR, Mean (SD) / Change from baseline in UACR, Median / Change from baseline in UGCR, ANCOVA LS mean (SE) / Change from baseline in UGCR, Mean (SD) / Change from baseline in UGCR, Median / Change from baseline in adiponectin, ANCOVA LS mean (SE) / Change from baseline in adiponectin, Mean (SD) / Change from baseline in adiponectin, Median / Change from baseline in leptin, ANCOVA LS mean (SE) / Change from baseline in leptin, Mean (SD) / Change from baseline in leptin, Median: 0.3 mg; for Change from baseline in HOMA-IR, ANCOVA LS mean difference / Change from baseline in HOMA-β, ANCOVA LS mean difference / Change from baseline in UACR, ANCOVA LS mean difference / Change from baseline in UGCR, ANCOVA LS mean difference / Change from baseline in adiponectin, ANCOVA LS mean difference / Change from baseline in leptin, ANCOVA LS mean difference: 0.3 mg vs placebo
Method: When a subject voluntarily gave written consent to participate in this clinical trial, a screening test was conducted. […] However, when the administration of a hypoglycemic agent was interrupted before the clinical trial Visit 1 (screening), at least an 8-week washout period, including the discontinuation period, was required, and during this period, a stable diet and exercise program was followed. Naïve patients were screened without a separate washout period, and the criteria for naïve patients were defined as patients who had not been administered hypoglycemic agents within 24 weeks prior to the date of obtaining written consent. […] In addition, they were instructed to maintain regular exercise and dietary control starting from 8 weeks prior to screening without changing their daily life patterns during the clinical trial period.

## OC[C@H]1O[C@@H](c2cc(Cc3ccc(C4CC4)cc3)c(Cl)c3c2CCO3)[C@H](O)[C@@H](O)[C@@H]1O [Enavogliflozin, (2S,3R,4R,5S,6R)-2-(7-chloro-6 (4-cyclopropylbenzyl)-2,3-dihydrobenzofuran-4-yl)-6-(hydroxymethyl)tetrahydro-2H-pyran-3,4,5-triol]
24 weeks, vs placebo
  Occurrence rates of adverse events or adverse drug reactions compared to the control: no statistically significant differences
Baseline
  Adiponectin, Mean (SD): 7.79 µg/mL
  Adiponectin, Median: 6.22 µg/mL
  HOMA-IR, Mean (SD): 3.47
  HOMA-IR, Median: 2.67
  HOMA-β, Mean (SD): 46.40
  HOMA-β, Median: 36.25
  Leptin, Mean (SD): 11.16 ng/mL
  Leptin, Median: 6.94 ng/mL
  UACR, Mean (SD): 28200 mg/kg
  UACR, Median: 10.50 g/kg
  UGCR, Mean (SD): 1.42 mg/mg
  UGCR, Median: 10.11 mg/mg
Week 6
  Adiponectin, Mean (SD): 7.91 µg/mL
  Adiponectin, Median: 6.67 µg/mL
  Change from baseline in HOMA-IR, ANCOVA LS mean (SE): −1.75
  Change from baseline in HOMA-IR, Mean (SD): −1.53
  Change from baseline in HOMA-IR, Median: −0.96
  Change from baseline in HOMA-β, ANCOVA LS mean (SE): 3.20
  Change from baseline in HOMA-β, Mean (SD): 3.95
  Change from baseline in HOMA-β, Median: 3.10
  Change from baseline in UACR, ANCOVA LS mean (SE): 1.45 g/kg
  Change from baseline in UACR, Mean (SD): 3660 mg/kg
  Change from baseline in UACR, Median: 0.80 g/kg
  Change from baseline in UGCR, ANCOVA LS mean (SE): 55.38 mg/mg
  Change from baseline in UGCR, Mean (SD): 53.23 mg/mg
  Change from baseline in UGCR, Median: 50.85 mg/mg
  Change from baseline in adiponectin, ANCOVA LS mean (SE): 0.22 µg/mL
  Change from baseline in adiponectin, Mean (SD): 0.31 µg/mL
  Change from baseline in adiponectin, Median: 0.48 µg/mL
  Change from baseline in leptin, ANCOVA LS mean (SE): -2.82 ng/mL
  Change from baseline in leptin, Mean (SD): -2.48 ng/mL
  Change from baseline in leptin, Median: -1.13 ng/mL
  HOMA-IR, Mean (SD): 1.96
  HOMA-IR, Median: 1.62
  HOMA-β, Mean (SD): 50.65
  HOMA-β, Median: 40.10
  Leptin, Mean (SD): 8.61 ng/mL
  Leptin, Median: 5.75 ng/mL
  UACR, Mean (SD): 32120 mg/kg
  UACR, Median: 11.30 g/kg
  UGCR, Mean (SD): 54.67 mg/mg
  UGCR, Median: 51.06 mg/mg
  Change from baseline in HOMA-IR, ANCOVA LS mean difference: −1.81
  Change from baseline in HOMA-β, ANCOVA LS mean difference: 3.30
  Change from baseline in UACR, ANCOVA LS mean difference: 7.96 g/kg
  Change from baseline in UGCR, ANCOVA LS mean difference: 52.97 mg/mg
  Change from baseline in adiponectin, ANCOVA LS mean difference: 0.26 µg/mL
  Change from baseline in leptin, ANCOVA LS mean difference: -2.89 ng/mL
Week 12
  Adiponectin, Mean (SD): 8.57 µg/mL
  Adiponectin, Median: 6.59 µg/mL
  Change from baseline in HOMA-IR, ANCOVA LS mean (SE): −1.60
  Change from baseline in HOMA-IR, Mean (SD): −1.50
  Change from baseline in HOMA-IR, Median: −1.09
  Change from baseline in HOMA-β, ANCOVA LS mean (SE): 13.51
  Change from baseline in HOMA-β, Mean (SD): 12.44
  Change from baseline in HOMA-β, Median: 7.15
  Change from baseline in UACR, ANCOVA LS mean (SE): -4.45 g/kg
  Change from baseline in UACR, Mean (SD): -7760 mg/kg
  Change from baseline in UACR, Median: 0.60 g/kg
  Change from baseline in UGCR, ANCOVA LS mean (SE): 52.58 mg/mg
  Change from baseline in UGCR, Mean (SD): 52.43 mg/mg
  Change from baseline in UGCR, Median: 51.21 mg/mg
  Change from baseline in adiponectin, ANCOVA LS mean (SE): 0.94 µg/mL
  Change from baseline in adiponectin, Mean (SD): 0.78 µg/mL
  Change from baseline in adiponectin, Median: 0.65 µg/mL
  Change from baseline in leptin, ANCOVA LS mean (SE): -2.35 ng/mL
  Change from baseline in leptin, Mean (SD): -2.38 ng/mL
  Change from baseline in leptin, Median: -1.15 ng/mL
  HOMA-IR, Mean (SD): 1.97
  HOMA-IR, Median: 1.53
  HOMA-β, Mean (SD): 58.83
  HOMA-β, Median: 42.30
  Leptin, Mean (SD): 8.78 ng/mL
  Leptin, Median: 6.26 ng/mL
  UACR, Mean (SD): 20430 mg/kg
  UACR, Median: 11.15 g/kg
  UGCR, Mean (SD): 53.85 mg/mg
  UGCR, Median: 51.70 mg/mg
  Change from baseline in HOMA-IR, ANCOVA LS mean difference: −1.72
  Change from baseline in HOMA-β, ANCOVA LS mean difference: 12.09
  Change from baseline in UACR, ANCOVA LS mean difference: -15.16 g/kg
  Change from baseline in UGCR, ANCOVA LS mean difference: 51.21 mg/mg
  Change from baseline in adiponectin, ANCOVA LS mean difference: 0.67 µg/mL
  Change from baseline in leptin, ANCOVA LS mean difference: -3.17 ng/mL
Week 18
  Adiponectin, Mean (SD): 8.62 µg/mL
  Adiponectin, Median: 6.76 µg/mL
  Change from baseline in HOMA-IR, ANCOVA LS mean (SE): −1.55
  Change from baseline in HOMA-IR, Mean (SD): −1.48
